Reference: article PMC7842083 (Molecular pharmaceutics, 2020)
Where two headings read alike, the source gives them in different places.

How the values were obtained:
[1] = in vivo; settings: female, po
[2] = in vitro; settings: pH 6; for Papp at 120 min, 0.1 µCi/mL: APP/PS1, mouse; for Papp at 120 min: WT, mouse
[3] = for time at which plasma concentrations reached a maximum: oral administration
[4] = 120 min, mean ± SD
[5] = oral administration; cited from earlier work

Cn1c(=O)c2c(ncn2C)n(C)c1=O [Caffeine, caffeine]
Kp ([1]; APP/PS1 (B6C3-Tg (APPswe, PSEN1dE9)85Dbo/Mmjax), mouse): 0.63 to 2.82
Kp ([1]; WT littermates of APP/PS1, mouse): 1.07 to 2.78
Papp at 120 min, 0.1 µCi/mL [2]: 27.2 ± 13.8 ×10⁻⁶ cm/s
Papp at 120 min [2]: 31.4 ± 10.1 ×10⁻⁶ cm/s
time post-dose at which Cmax appeared ([3]; oral dose of 5 mg/kg, present study): 0.5 h
% of initial amount at 2 h (absorbed through jejunal tissue) ([4]; jejunum from APP/PS1 mice, listed as 14C-Caffeine): 0.46 ± 0.14%
% of initial amount at 2 h (absorbed through jejunal tissue) ([4]; jejunum from APP/PS1 mice, listed as 14C-caffeine): 0.46%
% of initial amount at 2 h (absorbed through jejunal tissue) ([4]; jejunum from WT mice, listed as 14C-Caffeine): 0.40 ± 0.09%
% of initial amount at 2 h (absorbed through jejunal tissue) ([4]; jejunum from WT mice, listed as 14C-caffeine): 0.40%

CN1C(=O)CN=C(c2ccccc2)c2cc(Cl)ccc21 [Diazepam, diazepam]
% of initial amount at 2 h (absorbed through jejunal tissue) ([4]; jejunum from APP/PS1 mice, listed as 3H-Diazepam): 0.52 ± 0.12%
% of initial amount at 2 h (absorbed through jejunal tissue) ([4]; jejunum from APP/PS1 mice, listed as 3H-diazepam): 0.52%
% of initial amount at 2 h (absorbed through jejunal tissue) ([4]; jejunum from WT mice, listed as 3H-Diazepam): 0.42 ± 0.12%
% of initial amount at 2 h (absorbed through jejunal tissue) ([4]; jejunum from WT mice, listed as 3H-diazepam): 0.42%

C[C@H]1O[C@@H](O[C@H]2[C@@H](O)C[C@H](O[C@H]3[C@@H](O)C[C@H](O[C@H]4CC[C@@]5(C)[C@H](CC[C@@H]6[C@@H]5C[C@@H](O)[C@]5(C)[C@@H](C7=CC(=O)OC7)CC[C@]65O)C4)O[C@@H]3C)O[C@@H]2C)C[C@H](O)[C@@H]1O [Digoxin, digoxin]
Papp at 120 min, 0.1 µCi/mL [2]: 14.5 ± 11 ×10⁻⁶ cm/s
Papp at 120 min [2]: 64.2 ± 39.4 ×10⁻⁶ cm/s
time at which plasma concentrations reached a maximum ([3]; APP/PS1 mice): 0.5 h
time at which plasma concentrations reached a maximum ([3]; WT mice): 0.5 h
% of initial amount at 2 h (absorbed through jejunal tissue) ([4]; jejunum from APP/PS1 mice, listed as 3H-Digoxin): 0.22 ± 0.11 %
% of initial amount at 2 h (absorbed through jejunal tissue) ([4]; jejunum from APP/PS1 mice, listed as 3H-digoxin): 0.22 ± 0.11%
% of initial amount at 2 h (absorbed through jejunal tissue) ([4]; jejunum from WT mice, listed as 3H-Digoxin): 0.85 ± 0.30%
% of initial amount at 2 h (absorbed through jejunal tissue) ([4]; jejunum from WT mice, listed as 3H-digoxin): 0.85 ± 0.3%

CCCCC(=O)N(Cc1ccc(-c2ccccc2-c2nnn[nH]2)cc1)[C@H](C(=O)O)C(C)C [Valsartan, valsartan]
Papp at 120 min [2]: 55.8 ± 16.7 ×10⁻⁶ cm/s
time at which plasma concentrations reached a maximum ([3]; APP/PS1 mice): 1 h
time at which plasma concentrations reached a maximum ([3]; WT mice): 1 h

OC[C@@H](O)[C@@H](O)[C@H](O)[C@H](O)CO [^14C-Mannitol, mannitol]
Papp at 120 min, 0.1 µCi/mL [2]: 6 ± 3.4 ×10⁻⁶ cm/s
Papp at 120 min [2]: 10.7 ± 3.7 ×10⁻⁶ cm/s
% of initial amount at 2 h (absorbed through jejunal tissue) ([4]; jejunum from APP/PS1 mice): 0.12 ± 0.04 %
% of initial amount at 2 h (absorbed through jejunal tissue) ([4]; jejunum from WT mice): 0.17 ± 0.05%

CCN(C)C(=O)Oc1cccc([C@H](C)N(C)C)c1 [rivastigmine]
plasma concentrations in people with AD compared to healthy volunteers [5]: significantly higher
